Earlier results in patent US20030114475A1, “Methods for the treatment of addiction” (Addiction Therapies, Inc., priority 2001, published 2003).

Key:
[1] = in vivo
[2] = system: cocaine self-administration
[3] = in vivo; remark: listed apart in the source
dopamine transporter = dopamine transporter (Homo sapiens, UniProt Q01959)
Sequence of dopamine transporter (Q01959 whole entry): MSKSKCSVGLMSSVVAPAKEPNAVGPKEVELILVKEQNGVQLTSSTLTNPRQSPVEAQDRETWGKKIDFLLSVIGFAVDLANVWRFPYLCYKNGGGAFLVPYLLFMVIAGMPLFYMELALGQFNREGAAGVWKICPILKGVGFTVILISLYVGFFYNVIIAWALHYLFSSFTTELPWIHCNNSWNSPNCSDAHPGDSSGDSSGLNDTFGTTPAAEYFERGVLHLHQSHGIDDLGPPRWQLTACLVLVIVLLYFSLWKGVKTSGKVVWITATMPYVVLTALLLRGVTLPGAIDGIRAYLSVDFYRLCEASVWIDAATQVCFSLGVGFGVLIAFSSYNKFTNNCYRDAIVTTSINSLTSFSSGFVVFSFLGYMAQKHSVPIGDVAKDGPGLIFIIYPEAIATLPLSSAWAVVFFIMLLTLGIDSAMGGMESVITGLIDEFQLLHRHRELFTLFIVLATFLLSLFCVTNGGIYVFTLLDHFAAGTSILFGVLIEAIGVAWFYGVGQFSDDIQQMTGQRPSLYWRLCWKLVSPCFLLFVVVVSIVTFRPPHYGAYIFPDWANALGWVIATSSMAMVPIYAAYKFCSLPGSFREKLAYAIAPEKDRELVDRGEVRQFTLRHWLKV

Structure (SMILES): COC(=O)C(c1ccccc1)C1CCCCN1 (stereo not drawn) [Methylphenidate, methylphenidate]
- elimination half-life [1]: 2 to 3 h
- time to peak plasma concentrations [1]: 1 to 3 h

Structure (SMILES): Cc1ccc(-c2cc([C@@H]3C4CCC(C[C@@H]3c3ccc(Cl)cc3)N4C)on2)cc1 (stereo partly drawn) [RTI-336]
- effect on cocaine self-administration ([2]; rats): inhibits cocaine self-administration
- lever presses for a cocaine infusion after pre-treatment ([2]; rats pre-treated with 53.8 mg/kg, oral, decreased from 150±20 lever presses, unpublished observations, Dr. Susan Schenck): 36±14 lever presses
- oral availability [3]: orally available
- affinity and selectivity for the dopamine transporter (dopamine transporter): high affinity and selectivity
